Where “and” joins values, the source holds several entries; their conditions need not be identical. Equal entries are not always repeated. Where two headings read alike, the source gives them in different places.
Target: T1, 5-lipoxygenase (Rattus norvegicus, UniProt P12527)
T1 construct: supernatant fraction of Rat Basophilic Leukemia Cell Homogenate (RBL-1) serves as a 5-lipoxygenase enzyme source; endogenous in cells; host or cells: RBL-1 (rat basophilic leukemia) cells, 100,000 x g supernatant of the homogenate
T1 sequence (P12527 1-673): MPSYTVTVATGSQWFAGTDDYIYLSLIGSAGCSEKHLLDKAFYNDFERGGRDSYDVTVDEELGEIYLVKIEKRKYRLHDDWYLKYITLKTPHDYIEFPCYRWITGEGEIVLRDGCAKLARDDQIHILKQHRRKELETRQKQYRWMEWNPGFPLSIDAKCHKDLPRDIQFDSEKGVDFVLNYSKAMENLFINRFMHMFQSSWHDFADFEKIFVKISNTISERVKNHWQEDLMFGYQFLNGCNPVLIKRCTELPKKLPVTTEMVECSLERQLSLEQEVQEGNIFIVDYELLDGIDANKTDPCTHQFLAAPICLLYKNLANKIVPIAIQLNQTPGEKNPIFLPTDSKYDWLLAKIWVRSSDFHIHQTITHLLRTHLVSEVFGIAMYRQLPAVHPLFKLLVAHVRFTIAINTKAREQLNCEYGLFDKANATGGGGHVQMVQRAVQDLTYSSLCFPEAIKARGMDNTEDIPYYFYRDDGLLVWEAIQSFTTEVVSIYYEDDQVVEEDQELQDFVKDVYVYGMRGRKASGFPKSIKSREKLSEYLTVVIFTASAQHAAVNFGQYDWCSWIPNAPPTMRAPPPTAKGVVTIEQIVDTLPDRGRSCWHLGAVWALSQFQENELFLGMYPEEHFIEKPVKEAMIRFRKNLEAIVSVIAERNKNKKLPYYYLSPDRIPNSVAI
Assay: Inhibition of 5-lipoxygenase, in vitro (5-HETE synthesis, RBL-1 100,000 x g supernatant)
Assay type: biochemical
Conditions: for inhibition at 100 µM: RBL-1 supernatant, 5-HETE synthesis
Method: The compounds of the invention are evaluated with respect to 5-lipoxygenaseinhibition according to the following assay procedure.
Inhibition of 5-lipoxygenase, in vitro : anti-inflammatory, anti-allergy activities.
The 100,000 x g supernatant fraction of Rat Basophilic Leukemia Cell Homogenate (RBL-1) serves as a 5-lipoxygenase enzyme source. The enzyme is incubated with [1-^14 C)-arachidonic acid and Ca++ in the presence and absence of test compound. The product of 5-lipoxygenase, 5-hydroxyeicosatetraenoic acid (5-HETE), is separated by thin-layer chromatography and measured by radioactivity.
When more than one result is listed, this indicates the results from additional tests.

[1] = Rat Basophilic Leukemia Cell Homogenate (RBL-1) supernatant, [1-14C]-arachidonic acid and Ca++, several values = results from additional tests, read-out: 5-Lipoxygenase Inhibition IC50

Compound: CCCCCCCCc1ccc(C=C(C(C)=O)C(C)=O)cc1 [Example 5, 3-[(4-octylphenyl)methylene]-2,4-pentanedione]
- IC50 [1]: 4.4 µM

Compound: CCCCCCCCc1ccc(C=C(C(=O)OCC)C(=O)OCC)cc1 [Example 4, Diethyl 2-[(4-octylphenyl)methylene]propanedioate]
- inhibition at 100 µM: 45.6%

Compound: CCCCCCc1ccc(C=C(C(=O)OCC)C(=O)OCC)cc1 [Example 10, Diethyl 2-[(4-hexylphenyl)methylene]propanedioate]
- IC50 [1]: 100 µM

Compound: CCOC(=O)/C(=C/c1ccc(Cl)cc1)C(C)=O [Example 6E, Ethyl 2E-[(4-chlorophenyl)methylene]-3-oxobutanoate]
- IC50 [1]: 47 µM

Compound: CCCCCCc1ccc(/C=C/C(C)=O)cc1 [Example 9, 4-(4-hexylphenyl)-3E-buten-2-one]
- IC50 [1]: 100 µM

Compound: CCCCCCCCc1ccc(/C=C(/C(C)=O)C(=O)OCC)cc1 [Example 3D, Ethyl 2Z-[(4-octylphenyl)methylene]-3-oxobutanoate]
- inhibition at 100 µM: 42%

Compound: CCCCCCc1ccc(/C=C(\C(C)=O)C(=O)OCC)cc1 [Example 1A, Ethyl 2E-[(4-hexylphenyl)methylene]-3-oxobutanoate]
- IC50 [1]: 3 µM and 7.9 µM and 15 µM

Compound: CCOC(=O)/C(=C\c1ccc(Cl)cc1)C(C)=O [Example 6F, Ethyl 2Z-[(4-chlorophenyl)methylene]-3-oxobutanoate]
- IC50 [1]: 56 µM

Compound: CCOC(=O)/C(=C\c1ccc([N+](=O)[O-])cc1)C(C)=O [Example 7H, Ethyl 2Z-[(4-nitrophenyl)methylene]-3-oxobutanoate]
- IC50 [1]: 78 µM

Compound: CCCCCCCCc1ccc(/C=C/C(C)=O)cc1 [Example 8, 4-(4-octylphenyl)-3E-buten-2-one]
- IC50: 100 µM

Compound: CCCCCCc1ccc(/C=C(/C(C)=O)C(=O)OCC)cc1 [Example 1B, Ethyl 2Z-[(4-hexylphenyl)methylene]-3-oxobutanoate]
- IC50 [1]: 7.6 µM and 5.9 µM

Compound: CCCCCCCCc1ccc(/C=C(\C(C)=O)C(=O)OCC)cc1 [Example 3C, Ethyl 2E-[(4-octylphenyl)methylene]-3-oxobutanoate]
- IC50 [1]: 5.9 µM and 14 µM

Compound: CCOC(=O)/C(=C/c1ccc([N+](=O)[O-])cc1)C(C)=O [Example 7G, Ethyl 2E-[(4-nitrophenyl)methylene]-3-oxobutanoate]
- IC50 [1]: 74 µM

Compound: CCCCCCc1ccc(/C=C(/C(C)=O)C(=O)c2ccccc2)cc1 [Example 2, 2Z-[(4-hexylphenyl)methylene]-1-phenyl-1,3-butanedione]
- IC50 [1]: 18 µM
